Data set [1] is described as follows: Plasma pharmacokinetics of free drug after oral capecitabine in breast cancer patients. The format is in vivo, human. As to conditions: for concentration at 1 day / Cmax / half-life / AUC(0-t) / Tmax: human, plasma; for concentration at 1 day: one patient, day 1, slow absorption kinetics, read-out: plasma concentrations; for AUC(0-t): read-out: AUC0−5 h; for plasma concentrations: same patient, end of the first cycle (days 12–14). As to the method: In parallel, a plastic cannula was inserted into an antecubital vein to monitor blood concentrations of the study drug at 30-min intervals. A total of 10 capecitabine-naive patients were studied after the first morning dose of day 1. Three of them were monitored once again between days 12 and 14 of cycle 1.
(§1) After thawing, 100 μl plasma were centrifuged through Centrisart-C4 filter units with a nominal molecular weight cutoff=10 000 (Sartorius, Germany) for 30 min at 37°C to separate free drug from protein-bound drug. […] Capecitabine, DFCR, DFUR (supplied by Roche, Basel, Switzerland), and FU (Sigma, St Louis, MO, USA) were evaluated in 200 mM tetraborate buffer (pH=9.5) monitoring the absorbance at three different wavelengths (capecitabine: 297 nm, DFCR: 282 nm, DFUR and FU: 268 nm). […] The intra-assay coefficient of variation for this method ranged from 3.4 to 6.9% with an interassay coefficient of variation ranging from 6.7 to 10.4%.

Data set [2] is described as follows: Microdialysis pharmacokinetics in the interstitium of a cutaneous metastasis (tumour). The source says:
(§2) Patients were in a supine position throughout the study period. Commercially available microdialysis probes (CMA 10®, CMA, Stockholm, Sweden) were inserted into a suitable cutaneous metastasis. A second microdialysis probe was inserted horizontally into the subcutaneous connective tissue of one thigh. The surface of the disinfected skin was punctured according to a previously described procedure ([Müller et al, 1995]). The position of the probes in the metastasis was established by ultrasound scanning. Subsequently, the microdialysis system was connected and perfused with Ringer's solution at a flow rate of 1.5 μl min^−1 by a microinfusion-pump (Precidor®; Infors-AG, Basel, Switzerland). After a 30 min baseline sampling period, probe calibration for capecitabine and FU was performed for a period of 30 min according to a retrodialysis procedure ([Stahle et al, 1991]). After a wash-out period of 30 min, the study drug was administered in the scheduled dose. Sampling was continued at 30-min intervals up to 300 min.
(§3) Sample collection and analysis of microdialysates and blood samples by capillary electrophoresis were performed according to a validated method with minor modifications ([Mader et al, 1998]). After thawing, 100 μl plasma were centrifuged through Centrisart-C4 filter units with a nominal molecular weight cutoff=10 000 (Sartorius, Germany) for 30 min at 37°C to separate free drug from protein-bound drug. […] Capecitabine, DFCR, DFUR (supplied by Roche, Basel, Switzerland), and FU (Sigma, St Louis, MO, USA) were evaluated in 200 mM tetraborate buffer (pH=9.5) monitoring the absorbance at three different wavelengths (capecitabine: 297 nm, DFCR: 282 nm, DFUR and FU: 268 nm).
(§4) To obtain absolute interstitial concentrations from dialysate concentrations, microdialysis probes were calibrated for in vivo recovery rates according to the retrodialysis method ([Müller et al, 1995],[1997]). The principle of this method relies on the assumption that the diffusion process is quantitatively equal in both directions across the semipermeable membrane. Therefore, the study drug is added to the perfusate and the disappearance rate through the membrane is taken as the in vivo recovery. The in vivo recovery value is calculated as: […]
(§5) Absolute interstitial fluid concentrations of free drug were calculated from dialysate concentrations by the following equation: […]
(§6) The following pharmacokinetic parameters were determined: AUC calculated using the trapezoidal rule, maximum concentration (cmax), time to maximum concentration (tmax), and elimination half-life (t1/2). For statistical calculations, pharmacokinetic parameters derived from different compartments were compared using the paired Wilcoxon test.

The nature of data set [3]: Microdialysis pharmacokinetics in the interstitium of subcutaneous connective tissue. The following applies: human; for AUC(0-t) / Cmax / Tmax / half-life: po, 1250 mg.
Text: as §2, §3, §4, §5, §6

The nature of data set [4]: In vitro plasma protein binding (ultrafiltration). The data set is classed as in vitro ADME. How it is done:
as §1
The plasma protein binding of DFCR, DFUR, and FU was <4% up to 100 μg substance (ml plasma)^−1. In contrast, the plasma protein binding of capecitabine was determined to be 60% by in vitro binding experiments (data not shown).

On the set-up of data set [5]: method as in Mackean et al, 1998. As to conditions: most slowly eliminating compound; ref Mackean et al, 1998; cited from earlier work.
For data set [6] the following is noted: after capecitabine, cited from earlier work.
The mark [7] stands for this setting: po, free drug, median, n=10, 1250 mg capecitabine m^−2 orally, day 1, read-out: cmax.
Setting [8] is: po, median, n=10, 1250 mg capecitabine m^−2 orally.
Setting [9] is: po, median, n=10, 1250 mg capecitabine m^−2 orally, read-out: tmax.
[10] abbreviates: median of single-patient ratios, n=10.
The mark [11] stands for this setting: oral, 1250 mg m^−2, Ratio of AUC0−5 h s.c. Tissue/plasma, median of single-patient ratios, n=10.
Where [12] appears, read: up to 100 μg substance (ml plasma)^−1.
[13] abbreviates: tissue biopsies, colorectal tumours, ref Schüller et al, 2000.

This is an account of results in PMC2376334, “Penetration of capecitabine and its metabolites into malignant and healthy tissues of patients with advanced breast cancer” (British Journal of Cancer, 2003).

The term Cmax denotes the maximum level reached in the sampled fluid or tissue. In general, half-life refers to the time needed for the level to fall by half in the phase considered. A higher half-life goes with slow decline. As usually defined, the Tmax is the time at which the peak concentration occurs. The fraction unbound is free concentration divided by total concentration. A lower fraction unbound goes with little free substance. Turning to `C[C@H]1O[C@@H](n2cc(F)c(N)nc2=O)[C@H](O)[C@@H]1O` [DFCR, 5′-deoxy-5-fluorocytidine], the concentration at 1 day in data set [1] (oral, 1250 mg m^−2) was no more than 4000 ng/mL. Moreover, the Cmax in data set [1] (setting [7]) amounted to 6530 ng/mL; in data set [2] (human, po, 1250 mg), 4220 ng/mL; in data set [3], 4370 ng/mL. In addition, the half-life in data set [1] (setting [8]) is 0.86 h; in data set [2] (human, po, 1250 mg), 0.87 h; in data set [3], 0.76 h. Moreover, the AUC(0-t) in data set [1] (setting [8]) amounted to 11300 ng·h/mL; in data set [3], 8400 ng·h/mL. The time to peak (Tmax) was 1.75 h in data set [1] (setting [9]); 2.5 h in data set [2] (human, po, 1250 mg); 2.5 h in data set [3]. Further, the plasma concentrations result in data set [1] is recorded as “about 10 μg ml^−1”. The Kp in data set [2] (human, oral, 1250 mg m^−2) is 0.67; in data set [3] (setting [11]), 0.67. Moreover, in data set [2] (setting [10]), the “Ratio of AUC0−5 h Tumour/s.c. tissue” value came out at 1.12. The same compound had a fraction unbound in data set [4] (setting [12]) greater than 0.96. Moreover, the plasma half-life in data set [5] is on record as 1.22 h.
For `O=c1[nH]cc(F)c(=O)[nH]1` [FU, 5-fluorouracil, reference compound], the Cmax turned out to be 250 ng/mL in data set [1] (setting [7]); 260 ng/mL in data set [2] (human, po, 1250 mg); 330 ng/mL in data set [3]. Further, the AUC(0-t) amounted to 290 ng·h/mL in data set [1] (setting [8]) and 360 ng·h/mL in data set [3]. Also, the Tmax in data set [1] (setting [9]) was 2.5 h; in data set [2] (human, po, 1250 mg), 3 h; in data set [3] it was 2 h. In data set [1] (rarely exceeding, oral capecitabine regimen), the “FU levels in plasma” value is no more than 0.5 µg/mL. Also, the Kp in data set [2] (human, oral, 1250 mg m^−2) came to 0.66; in data set [3] (setting [11]), 1.53. The “Ratio of AUC0−5 h Tumour/s.c. tissue” value in data set [2] (setting [10]) is reported as 0.66. In addition, the “detection in tumour interstitium” value in data set [2] (one patient, day 1) was “not observed”. Moreover, the fraction unbound in data set [4] (setting [12]) is greater than 0.96. Moreover, the mean tumour/plasma ratio in data set [6] (patients with colorectal tumours, ref Schüller et al (2000)) is 21. Moreover, in data set [6] (setting [13]), the “median ratio tumour/healthy tissue of FU concentration” value is reported as 2.9. Also, in data set [6] (setting [13]), the “median tumour/plasma ratio of FU concentration” value was 16.6.
For `C[C@H]1O[C@@H](n2cc(F)c(=O)[nH]c2=O)[C@H](O)[C@@H]1O` [DFUR, 5′-deoxy-5-fluorouridine], in data set [1] (oral, 1250 mg m^−2), the concentration at 1 day is no more than 4000 ng/mL. Moreover, the Cmax in data set [1] (setting [7]) was found to be 3650 ng/mL. For the same compound, in data set [1] (setting [8]), the half-life is 0.8 h and the AUC(0-t) stood at 6420 ng·h/mL. Also, the Tmax in data set [1] (setting [9]) was 2 h. Further, the plasma concentrations entry in data set [1] is listed as “about 10 μg ml^−1”. In addition, in data set [2] (human, in vivo), the Kp stood at 0.53 and the “Ratio of AUC0−5 h Tumour/s.c. tissue” value turned out to be 1.20. The “AUC0−5 h” value in data set [2] (human, in vivo, po, 1250 mg) is on record as 3.35 μg ml^ 1 h. In data set [3] (in vivo, Ratio of AUC0−5 h s.c. Tissue/plasma), the Kp was determined as 0.44. This compound also had an AUC(0-t) in data set [3] (in vivo) of 2750 ng·h/mL. The fraction unbound in data set [4] (setting [12]) was greater than 0.96.
For `CCCCCOC(=O)Nc1nc(=O)n([C@@H]2O[C@H](C)[C@@H](O)[C@H]2O)cc1F` [Capecitabine], the Cmax in data set [1] (oral, 1250 mg m^−2, capecitabine-naive patients, range between patients, read-out: range of cmax) is 640 to 15400 ng/mL; in data set [1] (setting [7]) it was 2340 ng/mL; in data set [2] (human, po, 1250 mg) it was 2660 ng/mL; in data set [3] it was 2700 ng/mL. In addition, the Tmax was 1 to 3 h in data set [1] (oral, 1250 mg m^−2, capecitabine-naive patients, range between patients, read-out: range of tmax); 1.75 h in data set [1] (setting [9]); 2.5 h in data set [2] (human, po, 1250 mg); 2.25 h in data set [3]. Moreover, the half-life is 0.5 h in data set [1] (setting [8]); 0.5 h in data set [2] (human, po, 1250 mg); 0.59 h in data set [3]. Further, the AUC(0-t) in data set [1] (setting [8]) worked out at 2360 ng·h/mL; in data set [3], 3160 ng·h/mL. Besides, the Kp is 1.76 in data set [2] (human, oral, 1250 mg m^−2); 1.31 in data set [3] (setting [11]); greater than 2 in data set [3] (oral, 1250 mg m^−2, ratio AUCconnective tissue/AUCplasma, subgroup of four patients). In addition, the “Ratio of AUC0−5 h Tumour/s.c. tissue” value in data set [2] (setting [10]) came out at 1.11. In data set [4] (plasma, in vitro binding experiments (data not shown)), the fraction unbound is 0.4.
